Article PMC6152937 (Bioorganic & medicinal chemistry letters, 2018)

What was measured:
[1] = molecular target: rSigma2 (Rattus norvegicus, UniProt Q5U3Y7); experiment: Radio-ligand binding assay screen; conditions: cloned receptor; considered inactive
[2] = molecular target: 5-HT2B (Homo sapiens, UniProt P41595); experiment: Radio-ligand binding assay screen; conditions: cloned receptor; considered inactive
[3] = molecular target: Dopamine receptor D3 (Homo sapiens, UniProt P35462); experiment: Radio-ligand binding assay screen; conditions: cloned receptor; considered inactive
[4] = molecular target: SERT (Homo sapiens, UniProt P31645); experiment: Radio-ligand binding assay screen; conditions: cloned transporter; considered inactive
[5] = molecular target: β2 adrenoreceptor (Homo sapiens, UniProt P07550); experiment: Radio-ligand binding assay screen; conditions: cloned receptor; considered inactive
[6] = molecular target: β1 adrenoreceptor (Homo sapiens, UniProt P08588); experiment: Radio-ligand binding assay screen; conditions: cloned receptor; considered inactive
[7] = molecular target: rSigma1 (Rattus norvegicus, UniProt Q9R0C9); experiment: Radio-ligand binding assay screen; conditions: cloned receptor; considered inactive
Chain of rSigma1 (Q9R0C9 whole entry): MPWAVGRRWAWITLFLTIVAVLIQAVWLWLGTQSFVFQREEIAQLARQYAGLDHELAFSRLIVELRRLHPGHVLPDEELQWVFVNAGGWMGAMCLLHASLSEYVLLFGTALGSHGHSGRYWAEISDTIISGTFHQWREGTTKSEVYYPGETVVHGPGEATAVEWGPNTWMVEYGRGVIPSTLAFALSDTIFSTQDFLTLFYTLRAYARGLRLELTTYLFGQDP

[8] = molecular target: 5-HT2A (Homo sapiens, UniProt P28223); experiment: Radio-ligand binding assay screen; conditions: cloned receptor; considered inactive
[9] = molecular target: α2A adrenoreceptor (Homo sapiens, UniProt P08913); experiment: Radio-ligand binding assay screen; conditions: cloned receptor; considered inactive
[10] = molecular target: 5-HT1E (Homo sapiens, UniProt P28566); experiment: Radio-ligand binding assay screen; conditions: cloned receptor; considered inactive
[11] = molecular target: 5-HT1A (Homo sapiens, UniProt P08908); experiment: Radio-ligand binding assay screen; conditions: cloned receptor; considered inactive
[12] = molecular target: NET (Homo sapiens, UniProt P23975); experiment: Radio-ligand binding assay screen; conditions: cloned transporter; considered inactive
Chain of NET (P23975 whole entry): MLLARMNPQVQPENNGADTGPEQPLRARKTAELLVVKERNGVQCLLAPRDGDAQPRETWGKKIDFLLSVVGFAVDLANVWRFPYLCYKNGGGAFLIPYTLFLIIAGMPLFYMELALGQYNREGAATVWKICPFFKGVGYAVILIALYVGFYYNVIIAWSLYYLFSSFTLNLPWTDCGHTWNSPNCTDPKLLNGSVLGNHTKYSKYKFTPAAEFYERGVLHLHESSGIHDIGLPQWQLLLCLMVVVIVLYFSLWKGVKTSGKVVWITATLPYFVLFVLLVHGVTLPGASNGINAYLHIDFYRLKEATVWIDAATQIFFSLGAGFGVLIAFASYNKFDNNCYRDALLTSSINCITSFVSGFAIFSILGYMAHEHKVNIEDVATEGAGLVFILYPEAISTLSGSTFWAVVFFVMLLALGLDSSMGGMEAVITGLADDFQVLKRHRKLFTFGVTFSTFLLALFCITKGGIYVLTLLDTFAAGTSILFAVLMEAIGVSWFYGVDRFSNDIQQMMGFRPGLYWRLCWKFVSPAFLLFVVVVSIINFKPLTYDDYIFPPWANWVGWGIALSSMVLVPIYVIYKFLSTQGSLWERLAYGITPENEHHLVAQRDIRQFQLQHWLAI

[13] = molecular target: Histamine receptor H4 (Homo sapiens, UniProt Q9H3N8); experiment: Radio-ligand binding assay screen; conditions: cloned receptor; considered inactive
Chain of Histamine receptor H4 (Q9H3N8 whole entry): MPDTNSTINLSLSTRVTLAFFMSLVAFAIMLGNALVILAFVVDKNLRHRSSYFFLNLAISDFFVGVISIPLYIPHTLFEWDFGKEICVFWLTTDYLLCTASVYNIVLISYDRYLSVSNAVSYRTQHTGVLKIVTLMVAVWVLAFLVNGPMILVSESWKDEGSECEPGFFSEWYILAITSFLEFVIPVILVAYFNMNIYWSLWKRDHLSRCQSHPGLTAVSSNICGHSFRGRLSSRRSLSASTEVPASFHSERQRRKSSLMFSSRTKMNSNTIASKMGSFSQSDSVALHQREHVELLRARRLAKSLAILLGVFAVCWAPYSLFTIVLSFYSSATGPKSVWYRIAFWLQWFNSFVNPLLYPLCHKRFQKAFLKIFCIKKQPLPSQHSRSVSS

[14] = molecular target: α1B adrenoreceptor (Homo sapiens, UniProt P35368); experiment: Radio-ligand binding assay screen; conditions: cloned receptor; considered inactive
[15] = molecular target: Dopamine receptor D1 (Homo sapiens, UniProt P21728); experiment: Radio-ligand binding assay screen; conditions: cloned receptor; considered inactive
Chain of Dopamine receptor D1 (P21728 whole entry): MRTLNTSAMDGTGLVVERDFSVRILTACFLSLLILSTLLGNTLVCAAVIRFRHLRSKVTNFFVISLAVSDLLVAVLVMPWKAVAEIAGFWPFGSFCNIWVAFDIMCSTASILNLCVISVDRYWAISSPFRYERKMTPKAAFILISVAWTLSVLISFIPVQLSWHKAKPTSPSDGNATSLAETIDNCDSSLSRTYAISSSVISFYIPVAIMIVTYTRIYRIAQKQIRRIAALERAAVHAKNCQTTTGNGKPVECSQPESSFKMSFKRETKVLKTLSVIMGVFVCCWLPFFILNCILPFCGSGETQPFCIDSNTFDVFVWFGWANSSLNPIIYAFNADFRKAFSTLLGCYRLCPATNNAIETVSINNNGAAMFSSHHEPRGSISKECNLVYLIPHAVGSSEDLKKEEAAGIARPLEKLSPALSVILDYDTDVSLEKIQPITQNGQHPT

[16] = molecular target: 5-HT6 (Homo sapiens, UniProt P50406); experiment: Radio-ligand binding assay screen; conditions: cloned receptor; considered inactive
[17] = molecular target: Dopamine receptor D2 (Homo sapiens, UniProt P14416); experiment: Radio-ligand binding assay screen; conditions: cloned receptor; considered inactive
[18] = molecular target: Muscarinic receptor M4 (Homo sapiens, UniProt P08173); experiment: Radio-ligand binding assay screen; conditions: cloned receptor; considered inactive
[19] = molecular target: Dopamine receptor D4 (Homo sapiens, UniProt P21917); experiment: Radio-ligand binding assay screen; conditions: cloned receptor; considered inactive
[20] = molecular target: MOR (Homo sapiens, UniProt P35372); experiment: Radio-ligand binding assay screen; conditions: cloned receptor; considered inactive
Chain of MOR (P35372 whole entry): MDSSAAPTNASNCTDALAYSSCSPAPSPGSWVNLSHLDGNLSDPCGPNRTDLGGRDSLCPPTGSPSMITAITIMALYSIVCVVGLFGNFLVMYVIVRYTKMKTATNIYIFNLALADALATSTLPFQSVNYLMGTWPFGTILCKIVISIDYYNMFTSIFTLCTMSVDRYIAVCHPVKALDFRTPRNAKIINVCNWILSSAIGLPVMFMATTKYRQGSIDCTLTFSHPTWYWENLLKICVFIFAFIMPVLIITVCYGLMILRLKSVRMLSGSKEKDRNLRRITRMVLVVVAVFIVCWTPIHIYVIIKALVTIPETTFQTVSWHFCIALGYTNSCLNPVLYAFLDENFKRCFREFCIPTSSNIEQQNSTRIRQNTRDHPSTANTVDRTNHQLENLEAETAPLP

[21] = molecular target: α1Δ adrenoreceptor (Homo sapiens, UniProt P25100); experiment: Radio-ligand binding assay screen; conditions: cloned receptor; considered inactive
[22] = molecular target: Histamine receptor H2 (Homo sapiens, UniProt P25021); experiment: Radio-ligand binding assay screen; conditions: cloned receptor; considered inactive
[23] = molecular target: Muscarinic receptor M1 (Homo sapiens, UniProt P11229); experiment: Radio-ligand binding assay screen; conditions: cloned receptor; considered inactive
[24] = molecular target: 5-HT5A (Homo sapiens, UniProt P47898); experiment: Radio-ligand binding assay screen; conditions: cloned receptor; considered inactive
[25] = molecular target: Muscarinic receptor M3 (Homo sapiens, UniProt P20309); experiment: Radio-ligand binding assay screen; conditions: cloned receptor; considered inactive
[26] = molecular target: α1A adrenoreceptor (Homo sapiens, UniProt P35348); experiment: Radio-ligand binding assay screen; conditions: cloned receptor; considered inactive
[27] = molecular target: 5-HT7 (Homo sapiens, UniProt P34969); experiment: Radio-ligand binding assay screen; conditions: cloned receptor; considered inactive
[28] = molecular target: 5-HT3 (Homo sapiens, UniProt P46098); experiment: Radio-ligand binding assay screen; conditions: cloned receptor; considered inactive
[29] = molecular target: KOR (Homo sapiens, UniProt P41145); experiment: Radio-ligand binding assay screen; conditions: cloned receptor; considered inactive
[30] = molecular target: β3 adrenoreceptor (Homo sapiens, UniProt P13945); experiment: Radio-ligand binding assay screen; conditions: cloned receptor; considered inactive
[31] = molecular target: DAT (Homo sapiens, UniProt Q01959); experiment: Radio-ligand binding assay screen; conditions: cloned transporter; considered inactive
[32] = molecular target: Histamine receptor H1 (Homo sapiens, UniProt P35367); experiment: Radio-ligand binding assay screen; conditions: cloned receptor; considered inactive
[33] = molecular target: 5-HT1D (Homo sapiens, UniProt P28221); experiment: Radio-ligand binding assay screen; conditions: cloned receptor; considered inactive
[34] = molecular target: 5-HT1B (Homo sapiens, UniProt P28222); experiment: Radio-ligand binding assay screen; conditions: cloned receptor; considered inactive
[35] = molecular target: Muscarinic receptor MS (Homo sapiens, UniProt P08912); experiment: Radio-ligand binding assay screen; conditions: cloned receptor; considered inactive
Chain of Muscarinic receptor MS (P08912 whole entry): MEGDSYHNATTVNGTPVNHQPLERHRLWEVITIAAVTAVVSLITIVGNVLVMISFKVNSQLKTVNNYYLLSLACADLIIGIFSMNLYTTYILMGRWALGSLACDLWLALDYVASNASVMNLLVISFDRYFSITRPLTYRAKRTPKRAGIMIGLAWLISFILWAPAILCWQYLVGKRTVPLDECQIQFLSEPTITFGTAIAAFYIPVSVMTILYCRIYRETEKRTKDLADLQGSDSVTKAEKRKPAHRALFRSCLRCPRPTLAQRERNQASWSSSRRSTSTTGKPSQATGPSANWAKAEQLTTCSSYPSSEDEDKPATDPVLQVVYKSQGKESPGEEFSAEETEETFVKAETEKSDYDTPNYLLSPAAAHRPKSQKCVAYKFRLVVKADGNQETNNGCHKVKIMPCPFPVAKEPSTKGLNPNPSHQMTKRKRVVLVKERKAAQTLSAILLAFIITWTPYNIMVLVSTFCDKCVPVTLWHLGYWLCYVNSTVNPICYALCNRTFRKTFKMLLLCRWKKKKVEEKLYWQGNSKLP

[36] = molecular target: DOR (Homo sapiens, UniProt P41143); experiment: Radio-ligand binding assay screen; conditions: cloned receptor; considered inactive
[37] = molecular target: Histamine receptor H3 (Homo sapiens, UniProt Q9Y5N1); experiment: Radio-ligand binding assay screen; conditions: cloned receptor; considered inactive
[38] = molecular target: Muscarinic receptor M2 (Homo sapiens, UniProt P08172); experiment: Radio-ligand binding assay screen; conditions: cloned receptor; considered inactive
[39] = molecular target: 5-HT2C (Homo sapiens, UniProt P28335); experiment: Radio-ligand binding assay screen; conditions: cloned receptor; considered inactive
[40] = molecular target: Dopamine receptor D5 (Homo sapiens, UniProt P21918); experiment: Radio-ligand binding assay screen; conditions: cloned receptor; considered inactive
Chain of Dopamine receptor D5 (P21918 whole entry): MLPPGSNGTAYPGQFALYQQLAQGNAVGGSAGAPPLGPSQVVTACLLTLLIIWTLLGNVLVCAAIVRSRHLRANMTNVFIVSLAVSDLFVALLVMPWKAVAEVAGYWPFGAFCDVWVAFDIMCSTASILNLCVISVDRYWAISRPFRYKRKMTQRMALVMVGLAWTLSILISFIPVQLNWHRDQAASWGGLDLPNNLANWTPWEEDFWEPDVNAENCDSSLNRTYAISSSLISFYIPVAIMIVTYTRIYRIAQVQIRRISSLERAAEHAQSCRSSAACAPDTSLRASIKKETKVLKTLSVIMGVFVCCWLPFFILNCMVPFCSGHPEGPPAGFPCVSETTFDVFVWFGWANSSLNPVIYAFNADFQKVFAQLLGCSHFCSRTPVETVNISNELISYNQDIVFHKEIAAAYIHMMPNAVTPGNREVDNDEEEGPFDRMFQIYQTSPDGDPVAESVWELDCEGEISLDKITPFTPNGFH

[41] = molecular target: T1, human GABAB receptor (Homo sapiens, UniProt Q9UBS5); conditions: concentrations up to 100 μM, racemic mixtures
T1 sequence (Q9UBS5 15-961 limits assumed): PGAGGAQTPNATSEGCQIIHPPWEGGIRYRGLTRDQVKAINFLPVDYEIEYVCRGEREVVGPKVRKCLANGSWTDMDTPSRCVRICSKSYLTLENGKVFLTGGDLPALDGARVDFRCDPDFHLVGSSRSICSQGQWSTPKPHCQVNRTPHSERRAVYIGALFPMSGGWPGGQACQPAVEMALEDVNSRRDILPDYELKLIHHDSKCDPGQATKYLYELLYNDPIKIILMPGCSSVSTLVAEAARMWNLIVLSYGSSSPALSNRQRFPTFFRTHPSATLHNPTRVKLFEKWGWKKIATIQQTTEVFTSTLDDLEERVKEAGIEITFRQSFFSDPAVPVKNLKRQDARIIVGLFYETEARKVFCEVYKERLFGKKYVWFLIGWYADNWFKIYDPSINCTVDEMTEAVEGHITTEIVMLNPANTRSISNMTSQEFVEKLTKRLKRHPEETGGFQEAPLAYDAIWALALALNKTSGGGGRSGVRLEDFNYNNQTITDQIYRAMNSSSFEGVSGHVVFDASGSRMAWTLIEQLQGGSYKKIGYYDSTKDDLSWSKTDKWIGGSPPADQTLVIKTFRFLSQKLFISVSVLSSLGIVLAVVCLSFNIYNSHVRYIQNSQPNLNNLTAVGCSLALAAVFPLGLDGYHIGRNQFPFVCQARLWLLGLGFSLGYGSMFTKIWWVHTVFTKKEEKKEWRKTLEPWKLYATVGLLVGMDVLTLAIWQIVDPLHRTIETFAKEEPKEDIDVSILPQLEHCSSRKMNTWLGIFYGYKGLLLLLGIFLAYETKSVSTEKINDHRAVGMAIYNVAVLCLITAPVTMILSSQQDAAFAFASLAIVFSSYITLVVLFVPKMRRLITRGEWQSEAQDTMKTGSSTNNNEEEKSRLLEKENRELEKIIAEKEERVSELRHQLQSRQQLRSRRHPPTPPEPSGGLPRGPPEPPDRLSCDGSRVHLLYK
T1 sequence (O75899 42-941 partner): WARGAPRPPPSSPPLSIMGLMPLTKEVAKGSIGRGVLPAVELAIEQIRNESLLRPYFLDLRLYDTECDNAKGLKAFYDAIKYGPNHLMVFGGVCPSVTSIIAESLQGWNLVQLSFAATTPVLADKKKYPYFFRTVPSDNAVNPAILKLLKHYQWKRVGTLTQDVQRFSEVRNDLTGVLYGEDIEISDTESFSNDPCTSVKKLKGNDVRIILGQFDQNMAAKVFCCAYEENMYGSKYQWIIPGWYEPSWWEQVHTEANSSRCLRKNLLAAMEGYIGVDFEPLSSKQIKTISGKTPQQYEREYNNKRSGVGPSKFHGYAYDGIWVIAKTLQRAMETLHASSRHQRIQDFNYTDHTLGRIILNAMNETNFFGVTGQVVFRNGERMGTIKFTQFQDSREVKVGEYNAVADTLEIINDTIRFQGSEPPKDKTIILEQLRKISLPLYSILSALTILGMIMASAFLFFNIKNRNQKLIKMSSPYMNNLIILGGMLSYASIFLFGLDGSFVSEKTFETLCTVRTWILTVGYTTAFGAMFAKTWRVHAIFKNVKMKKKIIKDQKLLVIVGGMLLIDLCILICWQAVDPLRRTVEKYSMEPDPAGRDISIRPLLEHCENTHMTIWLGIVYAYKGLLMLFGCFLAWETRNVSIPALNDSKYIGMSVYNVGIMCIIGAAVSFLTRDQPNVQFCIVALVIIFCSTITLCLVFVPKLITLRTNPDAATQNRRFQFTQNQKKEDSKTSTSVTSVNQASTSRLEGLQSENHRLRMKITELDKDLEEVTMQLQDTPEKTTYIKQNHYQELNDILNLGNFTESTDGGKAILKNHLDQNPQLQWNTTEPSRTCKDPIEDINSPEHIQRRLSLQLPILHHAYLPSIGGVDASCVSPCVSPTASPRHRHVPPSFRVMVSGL

[42] = molecular target: T1, human GABAB receptor; conditions: read-out: GABAB EC50; agonist activity, HEK293/Cre-luc, ± standard error; ref [19]; cited from earlier work

CC(=O)c1ccc(C(O)C(F)(F)C(=O)C23CC4CC(CC(C4)C2)C3)cc1 (stereo not drawn) [Compound 3]
inhibition, rSigma2 [1]: less than 30%
inhibition, 5-HT2B [2]: less than 30%
inhibition, D3 [3]: less than 30%
inhibition, SERT [4]: less than 30%
inhibition, β2 [5]: less than 30%
inhibition, β1 [6]: less than 30%
inhibition, rSigma1 [7]: less than 30%
inhibition, 5-HT2A [8]: less than 30%
inhibition, α2A [9]: less than 30%
inhibition, 5-HT1E [10]: less than 30%
inhibition, 5-HT1A [11]: less than 30%
inhibition, NET [12]: less than 30%
inhibition, H4 [13]: less than 30%
inhibition, α1B [14]: less than 30%
inhibition, D1 [15]: less than 30%
inhibition, 5-HT6 [16]: less than 30%
inhibition, D2 [17]: less than 30%
inhibition, M4 [18]: less than 30%
inhibition, D4 [19]: less than 30%
inhibition, MOR [20]: less than 30%
inhibition, α1Δ [21]: less than 30%
inhibition, H2 [22]: less than 30%
inhibition, M1 [23]: less than 30%
inhibition, 5-HT5A [24]: less than 30%
inhibition, M3 [25]: less than 30%
inhibition, α1A [26]: less than 30%
inhibition, 5-HT7 [27]: less than 30%
inhibition, 5-HT3 [28]: less than 30%
inhibition, KOR [29]: less than 30%
inhibition, β3 [30]: less than 30%
inhibition, DAT [31]: less than 30%
inhibition, H1 [32]: less than 30%
inhibition, 5-HT1D [33]: less than 30%
inhibition, 5-HT1B [34]: less than 30%
inhibition, MS [35]: less than 30%
inhibition, DOR [36]: less than 30%
inhibition, H3 [37]: less than 30%
inhibition, M2 [38]: less than 30%
inhibition, 5-HT2C [39]: less than 30%
inhibition, D5 [40]: less than 30%

CCc1ccc(C(O)C(F)(F)C(=O)C23CC4CC(CC(C4)C2)C3)cc1 (stereo not drawn) [Compound 4]
Agonist activity at the GABAB receptor (in words) [41]: inactive

O=C(C12CC3CC(CC(C3)C1)C2)C(F)(F)C(O)/C=C/c1ccccc1 (stereo not drawn) [Compound 9]
EC50 [42]: 40 ± 3.59 µM

CC(C)(C)OC(=O)NC(c1ccccc1)C(F)(F)C(=O)c1ccc2ccccc2c1 (stereo not drawn) [Compound 11]
inhibition, rSigma2 [1]: less than 30%
inhibition, 5-HT2B [2]: less than 30%
inhibition, D3 [3]: less than 30%
inhibition, SERT [4]: less than 30%
inhibition, β2 [5]: less than 30%
inhibition, β1 [6]: less than 30%
inhibition, rSigma1 [7]: less than 30%
inhibition, 5-HT2A [8]: less than 30%
inhibition, α2A [9]: less than 30%
inhibition, 5-HT1E [10]: less than 30%
inhibition, 5-HT1A [11]: less than 30%
inhibition, NET [12]: less than 30%
inhibition, H4 [13]: less than 30%
inhibition, α1B [14]: less than 30%
inhibition, D1 [15]: less than 30%
inhibition, 5-HT6 [16]: less than 30%
inhibition, D2 [17]: less than 30%
inhibition, M4 [18]: less than 30%
inhibition, D4 [19]: less than 30%
inhibition, MOR [20]: less than 30%
inhibition, α1Δ [21]: less than 30%
inhibition, H2 [22]: less than 30%
inhibition, M1 [23]: less than 30%
inhibition, 5-HT5A [24]: less than 30%
inhibition, M3 [25]: less than 30%
inhibition, α1A [26]: less than 30%
inhibition, 5-HT7 [27]: less than 30%
inhibition, 5-HT3 [28]: less than 30%
inhibition, KOR [29]: less than 30%
inhibition, β3 [30]: less than 30%
inhibition, DAT [31]: less than 30%
inhibition, H1 [32]: less than 30%
inhibition, 5-HT1D [33]: less than 30%
inhibition, 5-HT1B [34]: less than 30%
inhibition, MS [35]: less than 30%
inhibition, DOR [36]: less than 30%
inhibition, H3 [37]: less than 30%
inhibition, M2 [38]: less than 30%
inhibition, 5-HT2C [39]: less than 30%
inhibition, D5 [40]: less than 30%

C/C=C/C=C/C(NCc1ccccc1)C(F)(F)C(=O)c1ccc2ccccc2c1 (stereo not drawn) [Compound 16]
Agonist activity at the GABAB receptor (in words) [41]: inactive

O=C(c1ccc(Cl)cc1)C(F)(F)C(NCc1ccccc1)c1ccccc1 (stereo not drawn) [Compound 17]
Agonist activity at the GABAB receptor (in words) [41]: moderate activity
